The term Papp A→B denotes how fast a substance crosses the layer from the apical side. A lower Papp A→B goes with poor permeation.

Here are results for 24 compounds from PMC4337820 (Journal of medicinal chemistry, 2015).

For data set [1], the system named is T.b. rhodesiense, strain STIB 900 trypomastigotes. The experiment in a line: In vitro activity against T. b. rhodesiense. The conditions noted are these: for anti-HAT activity class (TDR criteria): BSF T. b. rhodesiense. It counts as cell-based.
For data set [2], the system named is L6 cells (rat skeletal myoblasts). The data set is described as follows: Cytotoxicity in host L6 cells. It counts as cell-based.
The test system of data set [3] is T. cruzi, strain Tulahuen C4 amastigotes. The data set is described as follows: In vitro activity against T. cruzi amastigotes. The data set is classed as cell-based. The conditions noted are these: for antichagasic activity class (TDR criteria): T. cruzi amastigotes; for Bnz/comp: fold potency against T. cruzi relative to Bnz; for SI (IC50 in L6 cells/IC50 in T. cruzi): selectivity index vs L6 cells.

The test system of data set [4] is Chagas disease. The conditions noted are these: cited from earlier work; for cure rates, chronic stage: adults in the chronic stage.
The test system of data set [5] is blood stream form T. b. brucei parasites overexpressing TbNTR. The experiment in a line: Susceptibility of blood stream form T. b. brucei with or without elevated TbNTR. The data set is classed as cell-based.
Data set [6] has as its target T1, T. cruzi CYP51 (Trypanosoma cruzi, UniProt Q7Z1V1). The data set is described as follows: Reconstituted CYP51 reaction inhibition. The data set is classed as biochemical. The conditions noted are these: compound 19: at high I/E ratios (≥ 20).
The subject of data set [7] is Caco-2 cells. The experiment in a line: Caco-2 monolayer permeability. It counts as in vitro ADME. The note with it: 10 μM, 2 h. Background: Passage across Caco-2 layers is used to estimate intestinal permeability.
Data set [8] has as its system transgenic T. cruzi parasites expressing firefly luciferase. The data set is described as follows: In vivo antichagasic activity, acute T. cruzi infected murine model. The conditions noted are these: i.p., 15 mg/kg/day (compound 5: 13 mg/kg/day).
Data set [9] concerns the target T1, T. cruzi CYP51. The experiment in a line: Spectral titration binding to T. cruzi CYP51. The note with it: TcCYP51 spectral response.
The conditions of data set [10]: polar surface area, predicted; cited from earlier work.
Data set [11] concerns T.b. rhodesiense, strain STIB 900 trypomastigotes. The conditions noted are these: cited from earlier work.
Data set [12] has as its system L6 cells (rat skeletal myoblasts). The note with it: read-out: Cytotox. L6 IC-50; host L6 cells; cited from earlier work.
In data set [13] the test system is T. cruzi, strain Tulahuen C4 amastigotes. The conditions noted are these: cited from earlier work.
The nature of data set [14]: Caco-2 monolayer permeability. The note with it: human, Caco-2. It counts as in vitro ADME.
Setting [15] is: read-out: T.b.rhod. IC-50, strain STIB 900 trypomastigotes.
Where [16] appears, read: read-out: T.cruzi IC-50, strain Tulahuen C4 amastigotes.

Read-outs that look alike come from different tables or passages of the source.

T1 sequence (Q7Z1V1 whole entry): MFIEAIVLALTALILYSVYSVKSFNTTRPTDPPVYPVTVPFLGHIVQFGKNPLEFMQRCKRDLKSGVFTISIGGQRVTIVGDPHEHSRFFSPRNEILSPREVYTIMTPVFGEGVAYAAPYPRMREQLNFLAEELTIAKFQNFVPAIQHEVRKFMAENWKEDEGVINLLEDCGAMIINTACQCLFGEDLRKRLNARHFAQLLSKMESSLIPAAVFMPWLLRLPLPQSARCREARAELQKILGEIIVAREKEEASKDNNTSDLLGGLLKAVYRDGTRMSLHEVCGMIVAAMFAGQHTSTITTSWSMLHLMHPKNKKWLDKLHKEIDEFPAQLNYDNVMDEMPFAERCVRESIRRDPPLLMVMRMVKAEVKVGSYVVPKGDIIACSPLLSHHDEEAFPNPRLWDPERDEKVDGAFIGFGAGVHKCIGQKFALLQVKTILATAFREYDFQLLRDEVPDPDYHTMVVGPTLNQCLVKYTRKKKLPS

As for “1-(4-phenylphenyl)-2-(1H-1,2,4-triazol-1-yl)ethan-1-one [Compound 11]”, the IC50 in data set [1] (setting [15]) was 1.75 µM. For the same compound, the “SI (IC50 in L6 cells/IC50 in T.b. rhodesiense)” value in data set [1] (selectivity index vs L6 cells) is 125. This compound also had an IC50 in data set [2] of 220 µM. Besides, in [3], the “antichagasic activity class (TDR criteria)” value (“antichagasic activity class” for short) is “active”, the Bnz/comp was 11.9 and the “SI (IC50 in L6 cells/IC50 in T. cruzi)” value is 1164. The IC50 in data set [3] (setting [16]) came out at 0.188 µM.
With `O=C(Cn1ccnc1[N+](=O)[O-])NCc1ccccc1` [Bnz, N-benzyl-2-(2-nitro-1H-imidazol-1-yl)acetamide], the “cure rates, acute phase” value in [4] (acute phase of Chagas disease) is 65-80%. In addition, the “cure rates, chronic stage” value in [4] is given as 15-30%.
Regarding `N#Cc1ccc(-c2ccc(NC(=O)Cn3cnc([N+](=O)[O-])n3)cc2)cc1` [Compound 2, N-[4-(4-cyanophenyl)phenyl]-2-(3-nitro-1H-1,2,4-triazol-1-yl)acetamide], the “anti-HAT activity class (TDR criteria)” value in data set [1] is “active”. The “fold more susceptible, TbNTR-overexpressing vs non-induced parasites” value in data set [5] is 2 to 3 fold. The Bnz/comp in data set [3] amounted to 10.77. Further, in data set [6], the “reversibility of TcCYP51 inhibition” value is on record as “reversible”. Further, in [7], the “Caco 2 permeability ranking” value is reported as “high”. Moreover, the “parasite levels after 5 days of treatment” value in data set [8] is reported as “undetectable levels”.
Regarding `O=C(Cn1cnc([N+](=O)[O-])n1)Nc1nc(-c2ccc(Cl)cc2)cs1` [Compound 3, N-[4-(4-chlorophenyl)-1,3-thiazol-2-yl]-2-(3-nitro-1H-1,2,4-triazol-1-yl)acetamide], in data set [3], the “antichagasic activity class” value is recorded as “active” and the Bnz/comp came to 7.24.
As to `O=C(Cn1cnc([N+](=O)[O-])n1)Nc1nnc(-c2ccc(Cl)cc2)s1` [Compound 4, N-[5-(4-chlorophenyl)-1,3,4-thiadiazol-2-yl]-2-(3-nitro-1H-1,2,4-triazol-1-yl) acetamide], in [1], the “anti-HAT activity class (TDR criteria)” value is listed as “did not show any anti-HAT activity”. Also, in data set [3], the Bnz/comp is 0.04.
Regarding `O=C(Cn1cnc([N+](=O)[O-])n1)Nc1ccc(-c2ccc(Cl)cc2)cc1` [Compound 5, N-(4′-chloro-[1,1′-biphenyl]-4-yl)-2-(3-nitro-1H-1,2,4-triazol-1-yl)acetamide], the “factor of increased efficacy against T. cruzi compared to analog 2” value in [3] is reported as 3 fold. Besides, the “parasite levels after 5 days of treatment” value in data set [8] was “undetectable levels”.
For the compound `O=C(Cn1cnc([N+](=O)[O-])n1)Nc1nc(-c2ccc(F)c(F)c2)cs1` [Compound 6, N-(4-(3,4-difluorophenyl)thiazol-2-yl)-2-(3-nitro-1H-1,2,4-triazol-1-yl)acetamide], the “anti-HAT activity class (TDR criteria)” value in [1] was “inactive”. In addition, in [3], the “antichagasic activity class” value is recorded as “active” and the Bnz/comp is 4.42.
In the case of `O=C(Cn1ccnc1[N+](=O)[O-])Nc1nc(-c2ccc(F)c(F)c2)cs1` [Compound 7, N-(4-(3,4-difluorophenyl)thiazol-2-yl)-2-(2-nitro-1H-imidazol-1-yl)acetamide], the “anti-HAT activity class (TDR criteria)” value in [1] was “inactive”. In [3], the “fold less active against T. cruzi compared to 6” value was “about 8.7 fold”, the “antichagasic activity class” value is “borderline active” and the Bnz/comp is 0.51.
In the case of `Cc1nc(-c2cccc(NC(=O)Cn3cnc([N+](=O)[O-])n3)c2)cs1` [Compound 8, N-(3-(2-methylthiazol-4-yl)phenyl)-2-(3-nitro-1H-1,2,4-triazol-1-yl)acetamide], in [3], the “antichagasic activity class” value was “active” and the Bnz/comp turned out to be 3.67.
For the compound `O=C(Cn1cnc([N+](=O)[O-])n1)Nc1ccc(N2CCCCC2)cc1` [Compound 9, 2-(3-nitro-1H-1,2,4-triazol-1-yl)-N-(4-(piperidin-1-yl)phenyl)acetamide], in data set [1], the “anti-HAT activity class (TDR criteria)” value was “inactive”. Also, in data set [3], the “antichagasic activity class” value is “active” and the Bnz/comp is 3.66.
Take `O=C(Cn1cnc([N+](=O)[O-])n1)c1ccc(F)cc1F` [Compound 10, 1-(2,4-difluorophenyl)-2-(3-nitro-1H-1,2,4-triazol-1-yl)ethan-1-one]: in data set [3], the “antichagasic activity class” value is given as “active” and the Bnz/comp is recorded as 1.29.
With `CC(O)(Cn1cnc([N+](=O)[O-])n1)c1ccc(-n2ccnc2)cc1` (stereo not shown) [Compound 14, 2-[4-(1H-imidazol-1-yl)phenyl]-1-(3-nitro-1H-1,2,4-triazol-1-yl)propan-2-ol], in [3], the “fold less potent against T. cruzi than 17” value is recorded as 32 fold, the “antichagasic activity class” value is “active” and the Bnz/comp is listed as 0.68.
On to `CC(O)(Cn1cncn1)c1ccc(-n2ccnc2)cc1` (stereo not shown) [Compound 15, 2-[4-(1H-imidazol-1-yl)phenyl]-1-(1H-1,2,4-triazol-1-yl)propan-2-ol], for which, in data set [1], the “anti-HAT activity class (TDR criteria)” value is “inactive”.
Consider `CC(O)(Cn1cncn1)c1ccc(-c2ccccc2)cc1` (stereo not shown) [Compound 16, 2-(4-phenylphenyl)-1-(1H-1,2,4-triazol-1-yl)propan-2-ol], for which, in data set [1], the “anti-HAT activity class (TDR criteria)” value was “inactive”. In data set [3], the “fold less potent against T. cruzi than 17” value is on record as 7 fold, the “antichagasic activity class” value is given as “active” and the Bnz/comp is on record as 3.17.
`CC(O)(Cn1cnc([N+](=O)[O-])n1)c1ccc(-c2ccccc2)cc1` (stereo not shown) [Compound 17, 1-(3-nitro-1H-1,2,4-triazol-1-yl)-2-(4-phenylphenyl)propan-2-ol] gave a Bnz/comp in data set [3] of 21.94.
Consider `O=[N+]([O-])c1ncn(CC(O)(Cn2cncn2)c2ccc(F)cc2F)n1` (stereo not shown) [Compound 18, 2-(2,4-difluorophenyl)-1-(3-nitro-1H-1,2,4-triazol-1-yl)-3-(1H-1,2,4-triazol-1-yl)-propan-2-ol], for which, in data set [3], the “fold less potent against T. cruzi than 19” value was found to be 36 fold, the “fold more potent against T. cruzi than fluconazole” value was found to be 8.5 fold and the Bnz/comp is 1.81.
For `O=[N+]([O-])c1ncn(CC(O)(Cn2cncn2)c2ccc(-c3ccccc3)cc2)n1` (stereo not shown) [Compound 19, 1-(3-nitro-1H-1,2,4-triazol-1-yl)-2-(4-phenylphenyl)-3-(1H-1,2,4-triazol-1-yl)propan-2-ol], the “reversibility of TcCYP51 inhibition” value in data set [6] is on record as “irreversible”. Further, the “Caco 2 permeability ranking” value in data set [7] is “high”. The “apparent Kd, fold stronger than fluconazole” value in [9] is 10 fold.
For `Fc1ccc(C2(Cn3cncn3)Cn3ccnc3O2)c(F)c1` (stereo not shown) [Compound 20, 1-{[2-(2,4-difluorophenyl)-2H,3H-imidazo[2,1-b][1,3]oxazol-2-yl]methyl}-1H-1,2,4-triazole], in [3], the “fold less potent against T. cruzi than 18” value was “about 5 fold”, the Bnz/comp is 0.35 and the “SI (IC50 in L6 cells/IC50 in T. cruzi)” value was over 49.4.
Consider `Cc1ccc(S(=O)(=O)NC(Cc2ccccc2)Cn2cnc([N+](=O)[O-])n2)cc1` (stereo not shown) [Compound 21, 4-Methyl-N-[1-(3-nitro-1H-1,2,4-triazol-1-yl)-3-phenylpropan-2-yl]benzene-1-sulfonamide], for which, in data set [3], the “fold less potent against T. cruzi than 17” value is listed as “about 3 fold”, the “antichagasic activity class” value is on record as “active” and the Bnz/comp is listed as 1.7.
As for `O=[N+]([O-])c1ncn(CCCNS(=O)(=O)c2ccc(Cl)s2)n1` [Compound 23], in data set [10], the PSA is given as 122.7 Å^2. Moreover, the values for the IC50 in data set [11] (setting [15]), in data set [12] and in [13] (setting [16]) were 1.99 µM, 244 µM and 0.438 µM, respectively. Further, the “SI (IC50 in L6 cells/IC50 in T.b. rhodesiense)” value in [11] (selectivity index vs L6 cells) was 122. Further, in [13] (fold potency against T. cruzi relative to Bnz), the Bnz/comp is recorded as 3.6. Besides, the “SI (IC50 in L6 cells/IC50 in T. cruzi)” value in [13] (selectivity index vs L6 cells) was 556.
On to `Nc1nc(N)nc(Nc2ccc([As]3SCC(CO)S3)cc2)n1` (stereo not shown) [Melars., Melarsoprol, reference compound], for which, in data set [1] (Trypanosoma brucei, RHODESIENSE|STIB900, read-out: T.b.rhod. IC-50), the IC50 is 0.007 ± 0.001 µM.
Take `CC1CS(=O)(=O)CCN1/N=C/c1ccc([N+](=O)[O-])o1` (stereo not shown) [Nfx, 4-(5-nitrofurfurylindenamino)-3-methylthio-morpholine-1,1-dioxide]: the “cure rates, chronic stage” value in data set [4] is 15-30%.
For the compound `CNC(=C[N+](=O)[O-])NCCSCc1ccc(CN(C)C)o1` [Ranitidine, reference compound], the apparent permeability from apical to basolateral (Papp A→B) at 2 h, 10 µM in [14] stood at 2.4 nm/s.
For the compound `CC[C@@H]([C@H](C)O)n1ncn(-c2ccc(N3CCN(c4ccc(OC[C@@H]5CO[C@@](Cn6cncn6)(c6ccc(F)cc6F)C5)cc4)CC3)cc2)c1=O` [posaconazole], in data set [4] (clinical trials, human patients with chronic Chagas disease), the treatment failure is reported as about 80%.
